Assay [1] relates to TTX-sensitive Nav channels in mouse DRG neuron. The class given is cell-based. The following applies: for potency relative to JzTx-V (more potent): TTX-sensitive current; for 1.x/1.7, partially inactivated: mTTX-S vs hNav1.7, partially inactivated.
Assay [2] has as its target T1, hNav1.7 (Homo sapiens, UniProt Q15858). Description: cell-based. As to conditions: for block of hNav1.7 current: 100 pM peptide; for 1.x/1.7, fully non-inactivated: hNav1.7 vs hNav1.7, fully non-inactivated; for 1.x/1.7, partially inactivated: hNav1.7 vs hNav1.7, partially inactivated. The format is cell-based.
Assay [3] concerns the target T2, hNav1.5 (Homo sapiens, UniProt Q14524). Put plainly: cell-based. As to conditions: IonWorks Quattro; read-out: IC50 Nav1.5. A general note: The patch-clamp technique gives a direct electrical read-out from membranes.
Assay [4] addresses T2, hNav1.5. Put plainly: cell-based. As to conditions: PatchXpress; * = at high concentrations compound would wash off slowly or not at all; read-out: PX hNav1.5 Tonic IC50.
Assay [5] deals with hNav1.8 (Homo sapiens, UniProt Q9Y5Y9). Put plainly: cell-based. The class given is cell-based. The following applies: WCPC, n=2.
The subject of assay [6] is hNav1.8. Put plainly: cell-based. The class given is cell-based, human.
Assay [7] concerns the target T2, hNav1.5. Put plainly: cell-based. The format is cell-based.
In assay [8] the target is T3, hNav1.4 (Homo sapiens, UniProt P35499). The format is cell-based.
The target of the next assay is hNav1.3 (Homo sapiens, UniProt Q9NY46). The class given is cell-based.
The target in assay [9] is T1, hNav1.7. Put plainly: cell-based. As to conditions: IonWorks Quattro; read-out: IC50 Nav1.7.
The target in assay [10] is T3, hNav1.4. Description: cell-based. The following applies: PatchXpress; * = at high concentrations compound would wash off slowly or not at all; read-out: PX hNav1.4 Tonic IC50.
The subject of assay [11] is male CD-1 mice. As to conditions: mouse, in vivo.
Assay [12] concerns male CD-1 mice. As to conditions: mouse, in vivo. The source holds these as a separate data set.
The test system of the next assay is male Sprague-Dawley rats. The format is in vivo, rat. As to conditions: rat, in vivo.

The structures appear in SMILES notation. “And” between values parts separate entries of the source, which are not always exact repeats. Equal values may be shown once. “Also recorded” adds a separate entry of the source. Read-outs that look alike come from different tables or passages of the source.

T2 sequence (Q14524 whole entry): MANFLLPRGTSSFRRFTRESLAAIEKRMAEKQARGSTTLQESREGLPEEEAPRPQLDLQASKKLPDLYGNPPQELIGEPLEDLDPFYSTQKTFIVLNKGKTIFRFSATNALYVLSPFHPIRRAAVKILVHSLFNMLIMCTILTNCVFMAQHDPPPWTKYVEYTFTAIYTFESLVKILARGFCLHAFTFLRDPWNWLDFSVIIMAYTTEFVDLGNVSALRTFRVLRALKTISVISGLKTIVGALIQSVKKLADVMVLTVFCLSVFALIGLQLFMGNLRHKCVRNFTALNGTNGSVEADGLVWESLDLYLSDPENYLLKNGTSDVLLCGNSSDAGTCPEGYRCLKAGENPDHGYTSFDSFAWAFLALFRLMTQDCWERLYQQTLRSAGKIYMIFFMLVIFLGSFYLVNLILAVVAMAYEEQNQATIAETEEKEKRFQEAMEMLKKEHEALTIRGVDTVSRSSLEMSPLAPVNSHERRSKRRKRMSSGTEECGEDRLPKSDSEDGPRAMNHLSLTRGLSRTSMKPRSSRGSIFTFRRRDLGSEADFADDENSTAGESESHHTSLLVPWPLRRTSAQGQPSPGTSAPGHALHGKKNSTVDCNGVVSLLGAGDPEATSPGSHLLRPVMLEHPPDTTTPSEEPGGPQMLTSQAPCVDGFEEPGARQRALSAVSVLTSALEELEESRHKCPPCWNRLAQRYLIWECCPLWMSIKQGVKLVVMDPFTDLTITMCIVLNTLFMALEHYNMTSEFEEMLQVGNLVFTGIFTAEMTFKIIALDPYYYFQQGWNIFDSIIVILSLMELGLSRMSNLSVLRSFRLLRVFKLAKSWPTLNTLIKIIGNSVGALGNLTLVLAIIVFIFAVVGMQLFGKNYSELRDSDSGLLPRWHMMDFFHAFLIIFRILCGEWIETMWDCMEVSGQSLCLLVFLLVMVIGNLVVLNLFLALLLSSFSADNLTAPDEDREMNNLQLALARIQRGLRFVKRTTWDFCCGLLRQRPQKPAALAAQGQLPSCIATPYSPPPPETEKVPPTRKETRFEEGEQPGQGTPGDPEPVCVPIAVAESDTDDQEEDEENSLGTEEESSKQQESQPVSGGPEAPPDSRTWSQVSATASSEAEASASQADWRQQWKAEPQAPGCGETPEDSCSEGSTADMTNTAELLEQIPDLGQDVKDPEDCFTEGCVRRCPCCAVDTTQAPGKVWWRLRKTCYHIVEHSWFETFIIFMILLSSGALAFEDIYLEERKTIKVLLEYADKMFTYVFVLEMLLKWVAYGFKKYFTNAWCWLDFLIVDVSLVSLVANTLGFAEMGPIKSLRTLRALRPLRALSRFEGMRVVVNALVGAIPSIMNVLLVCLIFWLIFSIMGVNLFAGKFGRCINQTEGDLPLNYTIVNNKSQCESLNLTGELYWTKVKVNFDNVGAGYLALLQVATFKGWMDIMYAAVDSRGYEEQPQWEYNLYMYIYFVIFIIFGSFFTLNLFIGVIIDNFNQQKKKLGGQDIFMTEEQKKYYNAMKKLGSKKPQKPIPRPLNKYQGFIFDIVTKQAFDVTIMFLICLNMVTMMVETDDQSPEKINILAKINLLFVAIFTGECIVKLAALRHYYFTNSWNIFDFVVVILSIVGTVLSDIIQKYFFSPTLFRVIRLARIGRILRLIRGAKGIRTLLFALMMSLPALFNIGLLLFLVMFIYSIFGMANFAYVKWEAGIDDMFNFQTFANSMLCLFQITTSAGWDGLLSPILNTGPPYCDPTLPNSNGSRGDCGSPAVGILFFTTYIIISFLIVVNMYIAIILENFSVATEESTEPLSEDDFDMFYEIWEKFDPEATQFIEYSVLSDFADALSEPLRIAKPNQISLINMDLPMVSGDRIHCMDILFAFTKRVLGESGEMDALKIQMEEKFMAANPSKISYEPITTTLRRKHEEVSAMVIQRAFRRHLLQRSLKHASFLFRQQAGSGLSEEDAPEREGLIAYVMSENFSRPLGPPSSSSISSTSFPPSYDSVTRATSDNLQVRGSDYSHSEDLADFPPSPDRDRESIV
T1 sequence (Q15858 whole entry): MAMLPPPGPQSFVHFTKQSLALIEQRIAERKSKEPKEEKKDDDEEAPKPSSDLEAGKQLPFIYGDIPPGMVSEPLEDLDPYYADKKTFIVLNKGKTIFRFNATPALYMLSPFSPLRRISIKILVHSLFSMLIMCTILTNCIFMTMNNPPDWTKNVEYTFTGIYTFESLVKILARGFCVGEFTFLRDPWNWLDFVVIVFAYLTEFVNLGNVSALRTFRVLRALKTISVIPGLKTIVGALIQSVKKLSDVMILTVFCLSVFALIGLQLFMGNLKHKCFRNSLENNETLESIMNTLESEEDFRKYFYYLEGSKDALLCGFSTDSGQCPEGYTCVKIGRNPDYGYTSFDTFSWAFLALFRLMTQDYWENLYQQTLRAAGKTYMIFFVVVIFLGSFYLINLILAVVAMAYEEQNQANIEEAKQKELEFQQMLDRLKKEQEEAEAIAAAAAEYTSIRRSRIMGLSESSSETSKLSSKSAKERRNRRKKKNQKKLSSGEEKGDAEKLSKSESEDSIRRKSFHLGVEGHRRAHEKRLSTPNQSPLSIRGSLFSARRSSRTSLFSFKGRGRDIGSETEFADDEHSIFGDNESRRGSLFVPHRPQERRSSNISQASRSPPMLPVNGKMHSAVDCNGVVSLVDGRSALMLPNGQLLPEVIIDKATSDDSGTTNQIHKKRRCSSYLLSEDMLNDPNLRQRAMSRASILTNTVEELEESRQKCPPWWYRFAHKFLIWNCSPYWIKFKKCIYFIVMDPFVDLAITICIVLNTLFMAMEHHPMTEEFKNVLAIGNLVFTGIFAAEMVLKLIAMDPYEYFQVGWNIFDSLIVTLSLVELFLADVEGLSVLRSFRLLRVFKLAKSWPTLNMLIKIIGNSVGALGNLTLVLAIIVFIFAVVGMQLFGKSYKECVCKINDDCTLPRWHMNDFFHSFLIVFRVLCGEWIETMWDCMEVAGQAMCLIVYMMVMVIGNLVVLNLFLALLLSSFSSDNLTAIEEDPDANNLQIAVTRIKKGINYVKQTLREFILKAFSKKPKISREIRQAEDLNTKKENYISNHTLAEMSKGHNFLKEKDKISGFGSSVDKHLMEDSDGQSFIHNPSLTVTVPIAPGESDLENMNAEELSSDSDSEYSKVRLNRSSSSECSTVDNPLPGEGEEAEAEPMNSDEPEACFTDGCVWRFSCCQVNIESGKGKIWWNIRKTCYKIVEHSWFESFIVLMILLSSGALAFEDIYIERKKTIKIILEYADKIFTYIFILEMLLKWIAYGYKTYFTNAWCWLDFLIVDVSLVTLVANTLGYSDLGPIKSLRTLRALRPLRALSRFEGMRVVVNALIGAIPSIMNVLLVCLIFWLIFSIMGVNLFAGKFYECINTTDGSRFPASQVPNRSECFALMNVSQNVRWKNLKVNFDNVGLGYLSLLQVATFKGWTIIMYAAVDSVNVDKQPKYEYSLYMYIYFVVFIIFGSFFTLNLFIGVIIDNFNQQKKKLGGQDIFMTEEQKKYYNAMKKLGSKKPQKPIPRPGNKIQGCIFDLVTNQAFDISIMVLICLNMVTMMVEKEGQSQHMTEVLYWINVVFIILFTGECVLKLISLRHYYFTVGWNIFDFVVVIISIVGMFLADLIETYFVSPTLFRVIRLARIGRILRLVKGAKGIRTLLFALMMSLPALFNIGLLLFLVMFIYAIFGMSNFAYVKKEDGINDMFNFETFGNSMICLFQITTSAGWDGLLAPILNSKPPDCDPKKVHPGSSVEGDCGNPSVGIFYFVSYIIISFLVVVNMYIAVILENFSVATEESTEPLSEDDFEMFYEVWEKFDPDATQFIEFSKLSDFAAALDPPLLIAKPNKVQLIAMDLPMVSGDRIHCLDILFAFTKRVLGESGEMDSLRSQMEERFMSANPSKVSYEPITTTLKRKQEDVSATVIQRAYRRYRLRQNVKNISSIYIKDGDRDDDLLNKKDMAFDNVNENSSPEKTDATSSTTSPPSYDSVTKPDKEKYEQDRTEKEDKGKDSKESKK

Turning to `C#CC[C@H](N)C(=O)NCCCC[C@@H]1NC(=O)[C@H](CCCNC(=N)N)NC(=O)[C@H](CCCCN)NC(=O)[C@H](CO)NC(=O)[C@H](CC(=O)O)NC(=O)[C@@H]2CSSC[C@@H]3NC(=O)[C@H](CCCNC(=N)N)NC(=O)[C@H](CC(C)C)NC(=O)CNC(=O)[C@H](CCC(=O)O)NC(=O)[C@H](CSSC[C@H](NC(=O)[C@H](Cc4ccc(O)cc4)NC(=O)[C@@H](N)CC#N)C(=O)N[C@@H](CCC(N)=O)C(=O)N[C@@H](CCCCN)C(=O)N[C@@H](Cc4c[nH]c5ccccc45)C(=O)N[C@@H](CCCC)C(=O)N[C@@H](Cc4c[nH]c5ccccc45)C(=O)N[C@@H]([C@@H](C)O)C(=O)N2)NC(=O)[C@H](CSSC[C@@H](C(=O)N[C@@H](CCCNC(=N)N)C(=O)N[C@@H](CCCCN)C(=O)N[C@@H](CCC(=O)O)C(=O)N[C@H](C(N)=O)[C@@H](C)CC)NC(=O)[C@H](Cc2c[nH]c4ccccc24)NC(=O)[C@H](CC(C)C)NC(=O)[C@H](CCCCN)NC3=O)NC1=O` [SEQ ID NO: 392, CyA-[Nle6,Lys(Pra)14,Glu28]JzTx-V(1-29)], in assay [1], the “potency relative to JzTx-V (less potent)” value was “about 3 fold”. Further, the “block of TTX-sensitive Nav current” value in assay [1] (300 nM SEQ ID NO:392, held at −88 mV) is given as “blocked most TTX-sensitive Nav current; also recorded: almost complete inhibition”.

Turning to `C#CC[C@@H]1NC(=O)[C@@H]2CSSC[C@H](NC(=O)[C@H](Cc3ccc(O)cc3)NC(=O)[C@@H](N)CC#N)C(=O)N[C@@H](CCC(N)=O)C(=O)N[C@@H](CCCCN)C(=O)N[C@@H](Cc3c[nH]c4ccccc34)C(=O)N[C@@H](CCCC)C(=O)N[C@@H](Cc3c[nH]c4ccccc34)C(=O)N[C@@H]([C@@H](C)O)C(=O)N[C@H]3CSSC[C@H](NC(=O)[C@H](CCCNC(=N)N)NC(=O)[C@H](CC(C)C)NC(=O)CNC1=O)C(=O)N[C@@H](CCCCN)C(=O)N[C@@H](CC(C)C)C(=O)N[C@@H](Cc1c[nH]c4ccccc14)C(=O)N[C@H](C(=O)N[C@@H](CCCNC(=N)N)C(=O)N[C@@H](CCCCN)C(=O)N[C@@H](CCC(=O)O)C(=O)N[C@H](C(N)=O)[C@@H](C)CC)CSSC[C@H](NC(=O)[C@H](C)NC(=O)[C@H](CCCNC(=N)N)NC(=O)[C@H](CCCCN)NC(=O)[C@H](CO)NC(=O)[C@H](CC(=O)O)NC3=O)C(=O)N2` [SEQ ID NO: 395, CyA-[Nle6,Pra17,Glu28]JzTx-V(1-29)], the “block of TTX-sensitive Nav current” value in assay [1] (300 nM SEQ ID NO:395, held at −77 mV) was “fully blocked TTX-sensitive Nav current; also recorded: complete inhibition”. Moreover, the “potency relative to JzTx-V (more potent)” value in [1] (mouse DRG neurons) is reported as “equipotent”.

Consider `C#CC[C@H](N)C(=O)N[C@@H](Cc1ccc(O)cc1)C(=O)N[C@H]1CSSC[C@@H]2NC(=O)[C@@H]3CSSC[C@@H](C(=O)N[C@@H](CCCNC(=N)N)C(=O)N[C@@H](CCCCN)C(=O)N[C@H](C(=O)N[C@H](C(N)=O)[C@@H](C)CC)[C@@H](C)CC)NC(=O)[C@H](Cc4c[nH]c5ccccc45)NC(=O)[C@H](CC(C)C)NC(=O)[C@H](CCCCN)NC(=O)[C@H](CSSC[C@H](NC(=O)[C@H]([C@@H](C)O)NC(=O)[C@H](Cc4c[nH]c5ccccc45)NC(=O)[C@H](CCCC)NC(=O)[C@H](Cc4c[nH]c5ccccc45)NC(=O)[C@H](CCCCN)NC(=O)[C@H](CCC(N)=O)NC1=O)C(=O)N[C@@H](CC(=O)O)C(=O)N[C@@H](CO)C(=O)N[C@@H](CCCCN)C(=O)N[C@@H](CCCNC(=N)N)C(=O)N[C@@H](C)C(=O)N3)NC(=O)[C@H](CCCNC(=N)N)NC(=O)[C@H](CC(C)C)NC(=O)CNC(=O)[C@H](CCC(=O)O)NC2=O` [SEQ ID NO: 425, Pra-[Nle6]JzTx-V], for which the “block of hNav1.7 current” value at hNav1.7 [2] (held at −77 mV (partially inactivated state)) and on hNav1.7 [2] (held at −140 mV (fully non-inactivated state)) was “fully blocked Nav1.7 current; also recorded: complete inhibition” throughout. In assay [1], the “block of TTX-sensitive Nav current” value is given as “blocked most TTX-sensitive Nav current”. In addition, in assay [1] (1 nM peptide (as printed in text), mouse DRG neurons), the “inhibition of TTX-sensitive sodium current” value was “almost complete inhibition”. The “potency relative to JzTx-V (more potent)” value in assay [1] (mouse DRG neurons) was “about 3 fold”.

On to `NC1=N[C@H](O)[C@H]2[C@H]3O[C@]4(O)O[C@@H]([C@@H](O)[C@@]2(N1)[C@@H]4O)[C@]3(O)CO` [TTX, tetrodotoxin, reference compound], for which the “block of TTX-sensitive Nav current” value in assay [1] is “completely blocked TTX-sensitive Nav current”.

As for `CC[C@H](C)[C@H](NC(=O)[C@@H](NC(=O)[C@H](CCCCN)NC(=O)[C@H](CCCNC(=N)N)NC(=O)[C@@H]1CSSC[C@@H]2NC(=O)[C@H](C)NC(=O)[C@H](CCCNC(=N)N)NC(=O)[C@H](CCCCN)NC(=O)[C@H](CO)NC(=O)[C@H](CC(=O)O)NC(=O)[C@@H]3CSSC[C@H](NC(=O)[C@H](CCCNC(=N)N)NC(=O)[C@H](CC(C)C)NC(=O)CNC(=O)[C@H](CCC(=O)O)NC(=O)[C@H](CSSC[C@H](NC(=O)[C@@H](N)Cc4ccc(O)cc4)C(=O)N[C@@H](CCC(N)=O)C(=O)N[C@@H](CCCCN)C(=O)N[C@@H](Cc4c[nH]c5ccccc45)C(=O)N[C@@H](CCSC)C(=O)N[C@@H](Cc4c[nH]c5ccccc45)C(=O)N[C@@H]([C@@H](C)O)C(=O)N3)NC2=O)C(=O)N[C@@H](CCCCN)C(=O)N[C@@H](CC(C)C)C(=O)N[C@@H](Cc2c[nH]c3ccccc23)C(=O)N1)[C@@H](C)CC)C(N)=O` [compound 2], the concentration for half-maximal inhibition (IC50) (in general, the concentration needed to halve the response being measured) is 7200 nM and > 7000 nM on hNav1.5 [3]; 1600 nM and 2210 nM and 3250 nM on hNav1.5 [4]; 810 nM at hNav1.8 [5] (hNav1.8, fully non-inactivated, read-out: Mean IC50, fully non-inactivated); 530 nM on hNav1.8 [5] (hNav1.8, partially inactivated, read-out: Mean IC50, partially inactivated); 882 nM on hNav1.5 [7] (WCPC, hNav1.5, fully non-inactivated, n=2). Further, the “1.x/1.7, fully non-inactivated” value at hNav1.7 [2] came to 1; in the assay on hNav1.8 [6] (hNav1.8 vs hNav1.7, fully non-inactivated), 5724; at hNav1.5 [7] (hNav1.5 vs hNav1.7, fully non-inactivated), 6230; at hNav1.4 [8] (hNav1.4 vs hNav1.7, fully non-inactivated) it was 75; on hNav1.3 (hNav1.3 vs hNav1.7, fully non-inactivated), 99; in [1] (mTTX-S vs hNav1.7, fully non-inactivated), 530. The “1.x/1.7, partially inactivated” value is 1 on hNav1.7 [2]; 3282 in the assay on hNav1.8 [6] (hNav1.8 vs hNav1.7, partially inactivated); 2641 at hNav1.5 [7] (hNav1.5 vs hNav1.7, partially inactivated); 58 at hNav1.4 [8] (hNav1.4 vs hNav1.7, partially inactivated); 76 at hNav1.3 (hNav1.3 vs hNav1.7, partially inactivated); 111 in assay [1].

Turning to `C#CC[C@H](N)C(=O)N[C@@H](Cc1ccc(O)cc1)C(=O)N[C@H]1CSSC[C@@H]2NC(=O)[C@@H]3CSSC[C@@H](C(=O)N[C@@H](CCCNC(=N)N)C(=O)N[C@@H](CCCCN)C(=O)N[C@H](C(=O)N[C@H](C(N)=O)[C@@H](C)CC)[C@@H](C)CC)NC(=O)[C@H](Cc4c[nH]c5ccccc45)NC(=O)[C@H](CC(C)C)NC(=O)[C@H](CCCCN)NC(=O)[C@H](CSSC[C@H](NC(=O)[C@H]([C@@H](C)O)NC(=O)[C@H](Cc4c[nH]c5ccccc45)NC(=O)[C@H](CCCC)NC(=O)[C@H](Cc4c[nH]c5ccccc45)NC(=O)[C@H](CCCCN)NC(=O)[C@H](CCC(N)=O)NC1=O)C(=O)N[C@@H](CC(=O)O)C(=O)N[C@@H](CO)C(=O)N[C@@H](CCCCN)C(=O)N[C@@H](CCCNC(=N)N)C(=O)N[C@@H](C)C(=O)N3)NC(=O)[C@H](CCCNC(=N)N)NC(=O)[C@H](CC(C)C)NC(=O)CNC(=O)[C@H](CCC(=O)O)NC2=O` [compound 425], the IC50 was 8 nM and 13 nM at hNav1.7 [9]; 4 nM and 2.5 nM on hNav1.4 [10]; 970 nM and 700 nM at hNav1.5 [4]. Further, the “1.x/1.7, fully non-inactivated” value at hNav1.7 [2] is 1. Besides, the “1.x/1.7, partially inactivated” value at hNav1.7 [2] stood at 1; in [1] it was 6335.

Regarding `Cc1cccc(C)c1OCC(C)N` (stereo not drawn) [mexilitine, reference compound], in the assay on male CD-1 mice [11], the “thermal latency / thermal hyperalgesia” value was “significantly reverse thermal hyperalgesia”.

On to `CN1CC[C@]23c4c5ccc(O)c4O[C@H]2[C@@H](O)C=C[C@H]3[C@H]1C5` [morphine], for which the “time spent lifting and/or licking the affected paw, second phase (5-40 min)” value with male CD-1 mice [12] is “significantly reduce pain response; also recorded: significantly reduced the pain response; also recorded: did significantly reduce”. The “formalin response, second phase (5-40 min)” value in the assay with male Sprague-Dawley rats is reported as “significantly reduce pain response; also recorded: significantly reduced”.

The record behind these values is patent publication US9636418B2 (priority 2013, dated 2017).
